Test results: patent US20110152166A1, “METHOD OF MODULATION OF PROTEIN PHOSPHORYLATION-DEPENDENT CONFORMATIONAL TRANSITIONS WITH LOW MOLECULAR WEIGHT COMPOUNDS” (priority 2006, published 2011)

How the values were obtained:
[1] = target: T1, PDK1[Val127Leu] activation of SGK1 [Ser422Asp] (Homo sapiens, UniProt O15530, V127L); test: SGK activation by PDK1[Val127Leu] in vitro; assay type: biochemical; details: compound 60 μM
T1 construct: GST (N); made in house; host or cells: HEK293
Experimental: FIG. 4—Small compounds designed to bind the HM/PIF-pocket of PDK1 can block the PDK1-dependent phosphorylation and activation of substrates that require docking to the HM/PIF-pocket of PDK1. (A) Effect of compound 1 (100 and 200 μM) on PDK1 phosphorylation of its substrate S6K1. The phosphorylation reaction was performed in vitro with [γ^32P]ATP and then separated on SDS-PAGE followed by exposure to phosphorimager. The radioactive band corresponding to phosphorylated GST-56K1-T2[Thr412Glu] (S6K[412E]) is indicated. (B) PDK1 or PDK1[Val127Leu] (PDK1[V127L]) were pre-incubated with GST-[…]N-SGK1 [Ser422Asp] […] (C) The activity of S6K was measured in vitro after glutathione sepharose purification; aliquots of purified proteins were separated on SDS-PAGE and the level of activation loop phosphorylation was visualized by immunoblotting using phospho-specific antibodies that recognize the phosphorylated activation loop, followed by stripping of the membranes and re-probing with anti-GST to verify the presence of equal amounts of protein. (D) Cells overexpressing GST-56K1-T2[Thr412Glu] were treated as in (C) but S6K activity was measured in vitro after immunoprecipitation of the GST-fusion protein with anti-GST antibodies; the level of S6K expression was analysed by western-blotting of crude extracts. […]

GST-S6K11-365 = GST-S6K11-365 (Rattus norvegicus, UniProt P67999); test: Surface plasmon resonance, S6K1 binding to tail peptides; set-up: made in house; host or cells: COS cells (printed 'COST'), co-transfected with pCMV5-myc-PDK1
Sequence of GST-S6K11-365 (P67999 24-388): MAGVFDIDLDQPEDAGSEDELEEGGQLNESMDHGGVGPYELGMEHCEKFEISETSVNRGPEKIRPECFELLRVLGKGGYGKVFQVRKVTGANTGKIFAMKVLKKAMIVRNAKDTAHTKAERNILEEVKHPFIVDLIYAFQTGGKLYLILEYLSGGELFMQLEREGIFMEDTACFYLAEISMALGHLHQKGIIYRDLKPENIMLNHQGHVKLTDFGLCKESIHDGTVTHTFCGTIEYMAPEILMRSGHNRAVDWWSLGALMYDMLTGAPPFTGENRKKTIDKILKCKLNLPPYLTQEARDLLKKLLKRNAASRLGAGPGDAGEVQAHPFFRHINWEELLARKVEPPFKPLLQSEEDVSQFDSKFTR
Experimental: FIG. 13. The tail phosphate synergistically enhances the ability of the HM phosphate to activate S6K, dependent on the tail phosphate-binding site. (A) The kinase activity of purified kinase domain of S6K1 (S6K11-364), pre-phosphorylated by PDK1 in the activation loop, was determined in the presence of increasing concentrations of synthetic S6K1 tail peptide (residues 366-395) that was either non-phosphorylated (S371/T389), phosphorylated at Ser371 (pS371/T389) or Thr389 (5371/pT389) or phosphorylated at both sites (pS371/pT389). (B) The kinase activity of S6K11-364 and S6K11-364K144N, either pre-phosphorylated or not by PDK1, was determined in the absence or presence of 90 μM S371/pT389 or pS371/pT389. (C) pS371/pT389 S6K1 tail peptide was biotinylated and used to coat streptavidin Sensor Chips. The chips were thereafter analyzed for binding to purified GST-S6K11-365 or GST-56K11-365K144N. (A-C) Experiments were repeated at least 3 times and activity data (expressed as percent) are means±SD.
Sixty 146 cm^2 dishes with COST cells were co-transfected with pEBG-2T-S6K1-365 and pCMV5-myc-PDK1 (ratio 3:1) using calcium phosphate precipitation or with pEBG-2T-PKCζ and pCMV5-myc-PDK1 (ratio 3:1) using Fugene HD according to the manufacturers Instructions. Two days after transfection, the cells were harvested in lysis buffer as described above. […]

T1 sequence (O15530 whole entry V127L): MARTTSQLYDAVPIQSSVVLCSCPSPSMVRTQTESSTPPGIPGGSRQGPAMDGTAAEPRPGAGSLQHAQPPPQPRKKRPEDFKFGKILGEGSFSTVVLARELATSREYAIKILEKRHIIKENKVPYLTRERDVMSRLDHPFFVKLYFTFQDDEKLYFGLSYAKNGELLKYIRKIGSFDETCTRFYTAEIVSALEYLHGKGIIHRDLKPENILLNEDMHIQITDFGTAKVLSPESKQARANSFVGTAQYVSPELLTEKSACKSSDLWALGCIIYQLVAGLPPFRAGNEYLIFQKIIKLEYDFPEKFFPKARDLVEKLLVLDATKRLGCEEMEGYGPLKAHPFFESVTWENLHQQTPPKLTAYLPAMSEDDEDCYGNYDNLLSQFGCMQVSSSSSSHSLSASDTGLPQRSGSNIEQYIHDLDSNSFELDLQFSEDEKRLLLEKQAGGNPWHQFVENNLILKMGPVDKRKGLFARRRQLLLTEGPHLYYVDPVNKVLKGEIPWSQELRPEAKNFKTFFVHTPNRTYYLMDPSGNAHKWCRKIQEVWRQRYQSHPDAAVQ

Compound	SGK activation by PDK1[Val127Leu] (in words) [1]	specific binding of S6K11-365 or S6K11-365K144N (in words) (GST-S6K11-365)
O=C(O)CSC(CC(=O)c1ccc(Cl)cc1)c1ccccc1 (centres unmarked) [Compound 1]	not inhibited	
S371/T389: synthetic S6K1 tail peptide (residues 366-395), non-phosphorylated		No specific binding
